Laboratory results reported in US20210230101A1, “COMPOUNDS FOR TREATING DENGUE VIRUS INFECTIONS AND OTHER INFECTIONS” (Dana-Farber Cancer Institute, Inc., priority 2018, published 2021).
Where two headings read alike, the source gives them in different places.

How the values were obtained:
His6-tagged DENV2 sE2 = His6-tagged DENV2 sE2 (Dengue virus type 2, UniProt P14340); test: AlphaScreen competition assay (GNF2-biotin probe vs. envelope protein); type: binding, Dengue virus 2 (DENV2)
Text: Known DENV inhibitors to develop an AlphaScreen assay designed to identify compounds that compete for binding on envelop protein. The AlphaScreen is a bead-based proximity assay that permits measurement of biomolecular interactions of pico- to milli-molar affinities in microplate format. Following excitation of donor beads, energy is transferred to acceptor beads if analytes conjugated to donor and acceptor beads interact. […] We performed cross-titration experiments to optimize the molar concentrations of the probe (GNF2-biotin) and envelope glycoprotein for the assay. We also tested different orders of the addition of the assay components to achieve the best signal-to-noise ratio.

DENV [1] = test: Antiviral activity: viral infectivity assay (single-cycle viral yield); type: cell-based; conditions: Dengue virus; concentration that reduces single-cycle viral yield by 10-fold
Procedure: The term “IC90” refers to the concentration of an antiviral agent that reduces single-cycle viral yield by 10-fold.
For the viral infectivity assay, virus inocula were diluted in EBSS to achieve a multiplicity of infection (MOI) of 1, and were pre-incubated with the given small molecule at varying concentrations for 45 min at 37° C. The mixture was then added to cells for 1 hour at 37° C. to allow infection, after which the inoculum was removed and the cells were washed with 1×PBS to remove unbound virus and compound. Cells were overlaid with medium lacking inhibitor and incubated at 37° C. for 20-24 hours, corresponding to a single cycle of infection. Culture supernatants were harvested at this time, and the yield of infectious particles produced was quantified by plaque-forming assay. For initial antiviral screening of HTS “hits,” compounds were tested for activity at 3 and 10 μM. For IC90 value determination, viral yield (plaque-forming units per milliliter) was plotted versus the log of the inhibitor concentration, and non-linear regression analysis of the data (Graphpad Prism) was performed to determine the concentration at which viral yield is reduced 10-fold.

AmpC β-lactamase = target: T1, AmpC β-lactamase (Escherichia coli, UniProt P00811); test: AmpC beta-lactamase non-specific enzyme inhibition assay; type: biochemical; conditions: IC50/μM vs. AmpC
T1 construct: Shoichet lab (UCSF), gift
Procedure: AmpC beta-lactamase assay. The AmpC β-lactamase was a kind gift from the Shoichet lab (UCSF). The inhibitor was serially diluted (two-fold dilution series from 100 μM) and pre-incubated with 10 nM enzyme in working buffer (50 mM potassium phosphate, pH 7.0) at room temperature for 5 min. Nitrocefin (100 μM, VWR) was added to the solution and carefully mixed. Absorbance of the final mixture was immediately monitored at 470 nm for 3 min.
For both AmpC and MDH assays, the final concentration of DMSO was 2% for all samples. All assays were repeated in the presence of 0.01% Triton X-100. IC50 values of 3-110-22 presented in Table 2 are representative data from two independent experiments; values for the other lead compounds were measured once for each enzymatic assay.

[2] = Pharmacokinetic (PK) studies; conditions: mouse, in vivo
Procedure: FIG. 3. Pharmacokinetic (PK) data for S4105. The compound has a volume of distribution of 0.06 L/kg, which is essentially the blood volume of a mouse, implying that the compound may be sequestered in the plasma. […] The intraperitoneal (IP) dose was well absorbed. 8 hours after the IP dose of 20 mg/kg the plasma concentration for the three mice ranged from 75-200 μM. Even if the compound is 99.95% plasma protein bound, this would still give a free fraction of about 50 nM.
FIG. 4. PK data for ZNL-01-132. The compound has a long half-life in plasma of 5-6 hours. After IP dosing at 20 mg/kg high concentrations were achieved and 8 hours post dose the levels were approximately 2 μM.
PK studies were performed on compounds S4105 and ZNL-01-132.

[3] = Cytotoxicity (CellTiter-Glo); type: cell-based; conditions: hamster, BHK21 cells, read-out: CC50/μM (toxicity)
Procedure: The term “CC50” refers to the concentration of an antiviral agent that causes 50% loss of cell viability.
BHK21 cells (MEM with 2% FBS) were incubated with varying concentrations of inhibitor in a 96-well white plate for 24 hours at 37 degrees C. and 5% CO2. CellTiter-Glo (Promega) solution was used to measure viability following the manufacturer's instructions. Luminescence was measured using a Biotek Synergy plate reader. Data were plotted versus the log10 inhibitor concentration, and non-linear regression analysis (Graphpad Prism) was used to determine CC50 values, defined as the inhibitor concentration required to cause 50% loss of cell viability. The maximum concentration tested was 100 μM. Values presented in Table 1 are the average of two or more independent experiments.

DENV [4] = test: PRNT plaque reduction assay; type: cell-based; conditions: Dengue virus; plaque reduction by 50%; virus not given
Procedure: For plaque reduction assays, DENV1, 2, 3, 4 were tested on BHK-21 cells, and ZIKV was tested on Vero cells. Vims inocula were diluted in EBSS to 2500 pfu/ml as the final concentration, and were pre-incubated with different concentrations of small molecule inhibitors (2% DMSO vol/vol final concentration) for 45 min at 37° C., 5% CO2. The mixture (200 μl, 500 pfu of virus) was then added to cells for 1 hour (37° C., 5% CO2) to allow infection, after which the inoculum was removed, and the cells were washed with 1×PBS to remove unbound virus and compound. Cells were overlaid with carboxylmethylcellulose and incubated at 37° C., 5% CO2 to allow the formation of plaques (4 days for DENV1, 2, 3, 4 and 2-3 days for ZIKV). The cells were fixed and plaques visualized by staining of the cell monolayers with crystal violet. Empirical analysis was performed to determine the PRNT50 value, defined as the inhibitor concentration needed to reduce plaque formation by 50%.

VSV-eGFP = VSV-eGFP counter screen; type: cell-based
[5] = TX, in the presence of 0.01% Triton X-100

T1 sequence (P00811 20-377): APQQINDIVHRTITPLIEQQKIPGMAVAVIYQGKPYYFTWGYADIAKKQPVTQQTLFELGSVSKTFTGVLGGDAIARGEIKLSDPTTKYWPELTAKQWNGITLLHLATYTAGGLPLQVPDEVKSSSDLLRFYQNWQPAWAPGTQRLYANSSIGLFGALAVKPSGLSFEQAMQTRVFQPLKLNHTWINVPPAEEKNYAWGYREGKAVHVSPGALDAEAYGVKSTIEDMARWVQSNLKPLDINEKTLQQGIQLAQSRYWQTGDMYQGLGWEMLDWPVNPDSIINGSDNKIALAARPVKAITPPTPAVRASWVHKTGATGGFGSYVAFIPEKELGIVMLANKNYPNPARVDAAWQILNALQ

Compound | IC50 (His6-tagged DENV2 sE2) | IC90 (DENV [1]) | IC50 (AmpC β-lactamase; No TX, without Triton X-100) | IC50 (AmpC β-lactamase; [5]) | CC50 at 24 h [3] | EC50 (DENV [4]) | also measured
O=C(Nc1ccc(Oc2ccc(Cl)cc2)c(Cl)c1)c1cc(I)cc(I)c1O | 800 nM |  |  |  |  |  | 
Cc1cc(C(C#N)c2ccc(Cl)cc2)c(Cl)cc1NC(=O)c1ccccc1O (stereo not drawn) | 2000 nM | 8000 nM |  |  |  |  | 
NC(=O)c1cccc(-c2cc(Nc3ccc(OC(F)(F)F)cc3)ncn2)c1 [GNF2, reference compound] |  |  |  |  |  |  | competition of AlphaScreen signal (His6-tagged DENV2 sE2; GNF2-biotin on donor beads, His6-tagged DENV2 sE2 on acceptor beads): competed away in a dose-dependent fashion
Cc1cc(C(C#N)c2ccc(Cl)cc2)c(Cl)cc1NC(=O)c1cc(I)cc(I)c1O (stereo not drawn) [S4105] |  |  | 0.3 µM | > 100 µM | ~50 µM | 0.3 µM | Vd [2]: 0.06 L/kg; absorption of intraperitoneal (IP) dose ([2]; ip): well absorbed; concentration at 8 h ([2]; ip, 20 mg/kg): 75 to 200 µM; clearance ([2]; iv): 2.4 mL/h/kg; half-life ([2]; iv): 21 h
O=C(Nc1ccc(Oc2ccc(Cl)cc2)c(Cl)c1)c1cc(F)cc(F)c1O [ZNL-01-132] | 4000 nM |  | 38 µM | > 100 µM | 44 µM | 0.5 µM | % Inhibition Vs. VSV-eGFP, 2.5 μM (VSV-eGFP; 2.5 μM): 80%; % Inhibition Vs. VSV-eGFP, 5 μM (VSV-eGFP; 5 μM): >90%; half-life [2]: 5 to 6 h; concentration at 8 h ([2]; IP 20 mg/kg, 8 hours post dose, read-out: plasma concentration 8 hours after IP dose): ~2 µM
Cc1cc(C(C#N)c2ccc(Cl)cc2)c(Cl)cc1NC(=O)c1cc(I)cc(I)c1O (stereo not drawn) [drawing 87] | 800 nM | 1000 nM |  |  |  |  | 
